Measurements: patent US4882316A, “Pyrimidine derivatives” (Hoffmann-La Roche Inc., priority 1986, dated 1989)

These compounds were tested against herpes simplex virus type 2 (HSV-2) thymidine kinase (Human herpesvirus 2, UniProt P89446) (assay: inhibition of herpes simplex virus type 2 (HSV-2) thymidine kinase in vitro (3H-thymidine phosphorylation)). Conditions: thymidine kinase extract; 50 mM Tris-HCl, pH 8; 5 mM MgCl2; 5 mM ATP; 0.3 μM 3H-thymidine; 37° C., 30 minutes; read-out: IC50 (concentration of the test compound which inhibits enzyme activity by 50%).
Chain of herpes simplex virus type 2 (HSV-2) thymidine kinase (P89446 whole entry): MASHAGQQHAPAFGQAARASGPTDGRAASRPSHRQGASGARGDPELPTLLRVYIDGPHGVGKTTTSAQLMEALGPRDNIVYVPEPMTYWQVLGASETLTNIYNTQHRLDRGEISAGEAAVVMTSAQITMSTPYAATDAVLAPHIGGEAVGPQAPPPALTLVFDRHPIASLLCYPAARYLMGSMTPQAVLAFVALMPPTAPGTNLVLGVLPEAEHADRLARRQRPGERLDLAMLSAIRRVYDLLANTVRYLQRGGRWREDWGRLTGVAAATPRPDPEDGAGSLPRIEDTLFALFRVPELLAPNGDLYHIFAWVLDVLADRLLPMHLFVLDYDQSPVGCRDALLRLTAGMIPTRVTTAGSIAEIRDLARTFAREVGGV
Format: biochemical
Experimental: The assay mixture contains 50 mM Tris-HCl, pH 8, 5 mM magnesium chloride, 5 mM ATP, 0.3 μM ^3 H-thymidine (50 Ci/mmol), suitably diluted thymidine kinase extract and various concentrations of the test compounds in a total volume of 100 μl. Assays are incubated at 37° C. for 30 minutes and the reaction is terminated by immersion in a boiling water bath for 2 minutes. 85 μl aliquots from each assay are then dried on cellulose paper discs and the unphosphorylated ^3 H-thymidine is removed by washing in 4 mM ammonium formate. The radioactivity remaining bound to the discs is then measured by scintillation spectrophotometry. The degree of inhibition at each concentration of the test compound is expressed as a percentage of a control reaction. The IC50 value, namely the concentration of the test compound which inhibits enzyme activity by 50%, is then calculated. The results obtained with representative compounds of formula I are compiled in the following Table: […]
CCc1cn([C@H]2C[C@H](O)[C@@H](CSCc3c(Cl)cccc3Cl)O2)c(=O)[nH]c1=O [Example 14c, 5'-(2,6-dichlorobenzylthio)-2',5'-dideoxy-5-ethyluridine] was tested, and the IC50 was 0.072 µM.
Compound CCc1cn([C@H]2C[C@H](O)[C@@H](CCC(=O)Cc3c(Cl)cccc3Cl)O2)c(=O)[nH]c1=O [Example 3, 5'-[3-(2,6-dichlorophenyl)-2-oxopropyl]-2',5'-dideoxy-5-ethyluridine] has an IC50 of 0.0024 µM.
For CCc1cn([C@H]2C[C@H](O)[C@@H](CCC(O)Cc3c(Cl)cccc3Cl)O2)c(=O)[nH]c1=O (mixture of isomers) [Example 5, 5'-[3-(2,6-dichlorophenyl)-2(RS)-hydroxypropyl]-2',5'-dideoxy-5-ethyluridine], the IC50 was 0.016 µM.
With CCc1cn([C@H]2C[C@H](O)[C@@H](CCCCc3ccccc3)O2)c(=O)[nH]c1=O [Example 7, 2',5'-dideoxy-5-ethyl-5'-(3-phenylpropyl)uridine] the IC50 was 0.17 µM.
CCc1cn([C@H]2C[C@H](O)[C@@H](CS(=O)(=O)Cc3ccccc3)O2)c(=O)[nH]c1=O [Example 9, 5'-benzylsulphonyl-2',5'-dideoxy-5-ethyluridine] showed an IC50 of 0.6 µM.
